Each structure is given as a SMILES string. “And” between values parts separate entries of the source, which are not always exact repeats. Equal values may be shown once.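 The compound was tested at five concentrations on cells cultured in 96-well plates, with a 48-hour exposure period. GI50 marks 50% less growth. Definition used: TGI = concentration required for complete inhibition of growth.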 Where a SMILES comes first, the peptide text is derived from it. The star is where a group is joined. Cbz = O=C(OCc1ccccc1)*; Boc = CC(C)(C)OC(=O)*; OBn = c1ccc(CO*)cc1

What all share (assay): DTP human tumour cell line panel, 48 h
For assay [1], the system named is SNB-19 CNS.
Assay [2] has as its system HS 578T breast.
The subject of assay [3] is ACHN renal.
The test system of assay [4] is NCI-H460 lung.
In assay [5] the test system is HCT-116 colon.
For assay [6], the system named is M14 melanoma.
The test system of assay [7] is A549 NSCLC.
For assay [8], the system named is HCC-2998 colon.
Assay [9] relates to SK-OV-3 ovarian.
Assay [10] has as its system UACC-62 melanoma.
Assay [11] has as its system NCI/ADR-RES ovarian.
The subject of assay [12] is HOP-62 NSCLC.
The subject of assay [13] is SF-539 CNS.
Assay [14] has as its system SR leukemia.
Assay [15] deals with HT29 colon.
Assay [16] has as its system UO-31 renal.
The test system of assay [17] is DU-145 prostate.
Assay [18] relates to 786-0 renal.
The subject of assay [19] is NCI-H226 lung.

As for `COc1cc(/C=C2\N=C(c3ccccc3)N(/N=C/c3cc4cc(C)ccc4nc3Cl)C2=O)ccc1O`, the total growth inhibition concentration (TGI) is more than 100 µM in assay [1]; more than 100 µM in assay [2]; more than 100 µM in assay [3]; more than 100 µM in [4]; 51.8 µM in assay [5]; more than 100 µM in assay [6]. Moreover, the total growth inhibition concentration (TGI) in assay [7], in [8], in assay [9], in assay [10], in [11] and in assay [12] was more than 100 µM throughout. Also, the TGI is more than 100 µM in [13]; 47.1 µM in assay [14]; more than 100 µM in assay [15]; more than 100 µM in assay [16]; more than 100 µM in [17]; more than 100 µM in assay [18].
Regarding `CC(=O)NC1C(OCc2ccccc2)OC(CO)C(O)C1OC(C)C(=O)NC(C(=O)NC(CCC(=O)Nc1ccc2c(c1)CN1C(=O)c3ccccc3C1=N2)C(N)=O)C(C)C` (stereo unspecified), the TGI in [1], in assay [2], in assay [3], in assay [4], in [5] and in assay [6] was more than 100 µM each time. Moreover, the TGI in assay [7], in assay [8], in [9], in assay [10], in [11] and in [12] was more than 100 µM throughout. The TGI in assay [13], in assay [14], in [15], in assay [16], in [17] and in assay [18] was more than 100 µM throughout.
On to `OCC1OC(NC(=S)NCSCCC(F)(F)C(F)(F)C(F)(F)C(F)(F)C(F)(F)C(F)(F)F)C(O)C(O)C1O` (stereo unspecified), for which the TGI in [1] is more than 100 µM; in [2] it was more than 100 µM; in assay [3], more than 100 µM; in assay [4] it was more than 100 µM; in assay [5], more than 100 µM; in assay [6], 62.1 µM. Further, the total growth inhibition concentration (TGI) in [7], in [8], in assay [9], in assay [10], in assay [11] and in assay [12] was more than 100 µM in each case. Moreover, the total growth inhibition concentration (TGI) in [13] was 47.2 µM; in [14], more than 100 µM; in [15] it was more than 100 µM; in assay [16], more than 100 µM; in [17], more than 100 µM; in assay [18], more than 100 µM.
Consider `O=C1C(c2c(O)n(-c3ccccc3)c3ccccc23)=Nc2ccccc21`, for which the total growth inhibition concentration (TGI) in assay [1] was more than 100 µM; in assay [2], more than 100 µM; in [3] it was 79.5 µM; in assay [4], more than 100 µM; in assay [5], more than 100 µM; in assay [6], more than 100 µM. For the same molecule, the TGI in assay [19] was 70 µM; in assay [7], more than 100 µM; in assay [8] it was 75.5 µM; in assay [9], more than 100 µM; in [10], more than 100 µM; in assay [11], more than 100 µM. Also, the TGI is more than 100 µM in assay [12]; more than 100 µM in assay [14]; more than 100 µM in [15]; more than 100 µM in assay [16]; more than 100 µM in assay [17]; 36.7 µM in [18].
On to `COC(=O)[C@H]1[C@H](OC(=O)[C@@H](OC)c2ccccc2)ON2CC[C@@H](OC(=O)c3ccccc3)[C@H]12`, for which the TGI in assay [1] is more than 100 µM; in [2] it was more than 100 µM; in assay [3], 25.6 µM; in [4], more than 100 µM; in assay [5] it was more than 100 µM; in assay [6], more than 100 µM. Besides, the TGI in [19] is more than 100 µM; in assay [7], more than 100 µM; in assay [8] it was more than 100 µM; in assay [9], more than 100 µM; in assay [10], 28 µM; in assay [11], more than 100 µM. Besides, the total growth inhibition concentration (TGI) in assay [12], in assay [14], in assay [15], in assay [16], in assay [17] and in [18] was more than 100 µM in each case.
Consider `COC(=O)C(NC(=O)C12CCC(C)(C(=O)O1)C2(C)C)c1cc(C(C)(C)C)c(O)c(C(C)(C)C)c1` (stereo unspecified), for which the concentration for total growth inhibition (TGI) in assay [1], in assay [2], in assay [3], in [5], in assay [6] and in assay [19] was more than 100 µM in each case. Further, the TGI in [7], in assay [9], in assay [10], in [11], in [12] and in assay [13] was more than 100 µM each time. The TGI in assay [14], in assay [15], in assay [16], in assay [17] and in assay [18] was more than 100 µM throughout.
For `CN(C)c1ccc(C=Nc2ccc(-c3nc4ccccc4o3)cc2)cc1`, the TGI in assay [1] is more than 100 µM; in [2], more than 100 µM; in assay [3], more than 100 µM; in assay [4], 98.7 µM; in assay [5] it was more than 100 µM; in [6], more than 100 µM. Besides, the TGI in assay [7] is more than 100 µM; in assay [8] it was 47.3 µM; in assay [9], more than 100 µM; in assay [10] it was more than 100 µM; in assay [11] it was more than 100 µM; in assay [12], more than 100 µM. In addition, the TGI in assay [13], in assay [14], in assay [15], in assay [16], in assay [17] and in [18] was more than 100 µM each time.
`CC(=O)NC1C(OCc2ccccc2)OC(CO)C(O)C1OCC(=O)NC(C)C(=O)NC(CCC(=O)Nc1ccc2c(c1)CN1C(=O)c3ccccc3C1=N2)C(N)=O` (stereo unspecified): the TGI in assay [1], in [2], in assay [3], in assay [4], in assay [5] and in assay [6] was more than 100 µM each time. For the same molecule, the total growth inhibition concentration (TGI) in assay [7], in assay [8], in [9], in [10], in assay [11] and in assay [12] was more than 100 µM in each case. The TGI in assay [13], in [14], in [15], in [16], in assay [17] and in assay [18] was more than 100 µM throughout.
As for `CCC1c2[nH]c3ccccc3c2C[C@H]2C(=O)NC(Cc3ccccc3)C(=O)N12` (stereo partly specified), the TGI in assay [1] was more than 100 µM; in assay [2] it was 47.9 µM; in assay [3] it was more than 100 µM; in assay [5], 57.1 µM; in [6] it was 86.1 µM; in assay [19], 74.9 µM. For the same molecule, the total growth inhibition concentration (TGI) in assay [7] is more than 100 µM; in [8] it was 62.1 µM; in [9], more than 100 µM; in assay [10], 38.8 µM; in assay [11], 95.3 µM; in assay [12], more than 100 µM. Moreover, the TGI was 53.8 µM in assay [14]; 52.6 µM in assay [15]; more than 100 µM in [16]; more than 100 µM in assay [17]; more than 100 µM in assay [18].
For `COC(=O)C(CCCCNC(=O)OCc1ccccc1)NC(=O)C(CCC(=O)OCc1ccccc1)NC(=O)OC(C)(C)C` (stereo unspecified) (Boc-Glu(OBn)-Lys(Cbz)-OMe; configuration not given here), the TGI in [1], in assay [2], in assay [3], in assay [5], in [6] and in assay [19] was more than 100 µM each time. Moreover, the TGI in assay [7] was more than 100 µM; in assay [9], more than 100 µM; in assay [10], more than 100 µM; in assay [11], more than 100 µM; in assay [12] it was 32.2 µM; in [13], more than 100 µM. Further, the concentration for total growth inhibition (TGI) in assay [14], in assay [15], in assay [16], in assay [17] and in [18] was more than 100 µM each time.
Consider `COc1cc(-c2c(C(C)=O)c(-c3ccccc3)n(C3OC(COC(C)=O)C(OC(C)=O)C(OC(C)=O)C3OC(C)=O)c(=S)c2C#N)ccc1O` (stereo unspecified), for which the TGI in [1], in assay [2], in [3], in assay [4], in assay [5] and in [6] was more than 100 µM throughout. Also, the TGI in assay [7] is more than 100 µM; in assay [8], > 100 µM and 79.5 µM; in assay [10], more than 100 µM; in assay [11], more than 100 µM; in assay [12], more than 100 µM; in assay [14], more than 100 µM. Also, the total growth inhibition concentration (TGI) in assay [15], in assay [16], in assay [17] and in assay [18] was more than 100 µM throughout. For the same molecule, the GI50 in [8] is > 100 µM and 29.6 µM.
As for `COC(=O)/C=C(\S/C(=C(/c1ccccc1)n1cc(C(=O)OC)c(C(=O)OC)n1)c1ccccc1)C(=O)OC`, the TGI in assay [1] is 40 µM; in assay [2] it was 96.3 µM; in assay [3], 10.6 µM; in assay [4], more than 100 µM; in assay [5] it was 37.1 µM; in assay [6], 29.8 µM. For the same molecule, the total growth inhibition concentration (TGI) is more than 100 µM in assay [19]; 62.6 µM in assay [7]; more than 100 µM in [9]; 94 µM in assay [10]; 89.1 µM in [11]; 31 µM in assay [12]. The concentration for total growth inhibition (TGI) is 32.4 µM in [13]; 32.6 µM in assay [14]; 18.6 µM in [15]; 5.25 µM in assay [16]; 29.1 µM in assay [17]; more than 100 µM in assay [18].
In the case of `COc1ccc(-c2c(C(=O)Nc3ccccc3)c(-c3ccccc3)n(C3OC(CO)C(O)C(O)C3O)c(=S)c2C#N)cc1` (stereo unspecified), the TGI in assay [1], in [2], in [3], in [4], in assay [5] and in [6] was more than 100 µM each time. The concentration for total growth inhibition (TGI) in assay [19], in [7], in assay [8], in [10], in assay [11] and in [12] was more than 100 µM in each case. Further, the concentration for total growth inhibition (TGI) in assay [14], in assay [15], in assay [16], in [17] and in assay [18] was more than 100 µM in each case.
Take `NC1=NC(=O)[C@H](CSCc2ccccc2)N1C(=O)OCc1ccccc1`: the TGI in [1], in assay [2], in assay [3], in assay [4], in [5] and in [19] was more than 100 µM in each case. In addition, the concentration for total growth inhibition (TGI) in [8], in [10], in assay [11], in [12], in assay [14] and in [15] was more than 100 µM in each case. The total growth inhibition concentration (TGI) in assay [16], in assay [17] and in assay [18] was more than 100 µM in each case.
`CN(Cc1cnc2nc(N)nc(N)c2n1)c1ccc(C(=O)NC2CCCCC2)cc1`: the TGI in assay [1] was 38.7 µM; in assay [2], 63.4 µM; in assay [3], 47.8 µM; in assay [4], 63.5 µM; in assay [5] it was more than 100 µM; in assay [6] it was 29 µM. In addition, the TGI in [19] is 80.4 µM; in [9], more than 100 µM; in assay [10] it was 32 µM; in [11] it was more than 100 µM; in [12], more than 100 µM; in assay [13] it was 29.7 µM. Moreover, the total growth inhibition concentration (TGI) in [14] was more than 100 µM; in assay [15], 31 µM; in assay [16] it was more than 100 µM; in [17], more than 100 µM; in [18], more than 100 µM.

One may read the TGI as the concentration at which net growth stops. A higher TGI goes with lower sensitivity of the cells. For orientation: GI50 means the concentration giving 50% growth inhibition.

For the origin of these results see PubChem BioAssay (NCI).
